Measured values: patent US10927123B2, “Modulators of the beta-3 adrenergic receptor useful for the treatment or prevention of disorders related thereto” (Arena Pharmaceuticals, Inc., priority 2016, dated 2021)

biological target: Beta-3 Adrenergic Receptor (Homo sapiens (Human), UniProt P13945); experiment: HTRF cAMP antagonist assay (IC50 determination); assay type: cell-based; details: CHO-K1 cells stably expressing recombinant receptor; antagonism of isoproterenol at EC90; cAMP readout
Outline: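 In this functional readout, recombinant CHO-K1 cells received compound, then isoproterenol at its EC90. After 1 h at room temperature, cAMP levels were determined by HTRF using an on-plate standard curve, and IC50 values were fitted.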

Beta-3 Adrenergic Receptor, sequence (P13945 whole entry, species assumed): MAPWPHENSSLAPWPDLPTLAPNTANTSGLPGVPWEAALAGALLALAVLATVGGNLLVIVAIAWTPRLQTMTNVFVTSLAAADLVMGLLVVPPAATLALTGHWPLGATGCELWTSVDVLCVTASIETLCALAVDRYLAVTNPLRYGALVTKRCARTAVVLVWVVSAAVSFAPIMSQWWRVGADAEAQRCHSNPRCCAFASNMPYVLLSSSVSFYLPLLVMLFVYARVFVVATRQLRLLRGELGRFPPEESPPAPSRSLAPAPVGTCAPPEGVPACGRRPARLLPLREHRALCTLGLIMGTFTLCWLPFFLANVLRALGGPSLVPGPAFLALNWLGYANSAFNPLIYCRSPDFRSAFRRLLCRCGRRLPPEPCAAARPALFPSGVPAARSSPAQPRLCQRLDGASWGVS

SMILES | IC50
CN1CCOc2cc(S(=O)(=O)N3CCC4(CC3)C[C@@H](NC[C@H](O)COc3cccc(S(=O)(=O)C5CC5)c3)CO4)cnc21 [Compound 290, (S)-1-(3-(cyclopropylsulfonyl)phenoxy)-3-((R)-8-(4-methyl-3,4-dihydro-2H-pyrido[3,2-b][1,4]oxazin-7-ylsulfonyl)-1-oxa-8-azaspiro[4.5]decan-3-ylamino)propan-2-ol] | 0.0342 µM
O=S(=O)(c1cccc(OC[C@@H](O)CN[C@H]2COC3(CCN(S(=O)(=O)c4cnc5c(c4)CCCO5)CC3)C2)c1)C1CC1 [Compound 291, (5)-1-(3-(cyclopropylsulfonyl)phenoxy)-3-((R)-8-(3,4-dihydro-2H-pyrano[2,3-b]pyridin-6-ylsulfonyl)-1-oxa-8-azaspiro[4.5]decan-3-ylamino)propan-2-ol] | 0.0698 µM
CCn1cc(S(=O)(=O)N2CCC3(CC2)C[C@@H](NC[C@H](O)COc2cccc(S(=O)(=O)C4(CO)CC4)c2)CO3)c(=O)c2ccccc21 [Compound 292, 1-ethyl-3-((R)-3-((S)-2-hydroxy-3-(3-(1-(hydroxymethyl)cyclopropylsulfonyl)phenoxy)propylamino)-1-oxa-8-azaspiro[4.5]decan-8-ylsulfonyl)quinolin-4(1H)-one] | 0.0902 µM
CCn1cc(S(=O)(=O)N2CCC3(CC2)C[C@H](NC[C@H](O)COc2cccc(S(=O)(=O)C4(CO)CC4)c2)CO3)c(=O)c2ccccc21 [Compound 293, 1-ethyl-3-((S)-3-((S)-2-hydroxy-3-(3-(1-(hydroxymethyl)cyclopropylsulfonyl)phenoxy)propylamino)-1-oxa-8-azaspiro[4.5]decan-8-ylsulfonyl)quinolin-4(1H)-one] | 0.13 µM
CCn1cc(S(=O)(=O)N2CCC3(CC2)C[C@@H](NC[C@H](O)COc2cccc(S(=O)(=O)C(C)(C)CO)c2)CO3)c(=O)c2ccccc21 [Compound 294, 1-ethyl-3-((R)-3-((S)-2-hydroxy-3-(3-(1-hydroxy-2-methylpropan-2-ylsulfonyl)phenoxy)propylamino)-1-oxa-8-azaspiro[4.5]decan-8-ylsulfonyl)quinolin-4(1H)-one] | 0.11 µM
Cn1cc(S(=O)(=O)N2CCC3(CC2)C[C@@H](NC[C@H](O)COc2cccc(S(=O)(=O)C4(CO)CC4)c2)CO3)c(=O)c2ccccc21 [Compound 295, 3-((R)-3-((S)-2-hydroxy-3-(3-(1-(hydroxymethyl)cyclopropylsulfonyl)phenoxy)propylamino)-1-oxa-8-azaspiro[4.5]decan-8-ylsulfonyl)-1-methylquinolin-4(1H)-one] | 0.143 µM
CCn1cc(S(=O)(=O)N2CCC3(CC2)C[C@H](NC[C@@H](O)COc2cccc(S(C)(=O)=O)c2)CO3)c(=O)c2ccccc21 [Compound 296, 1-ethyl-3-((S)-3-((R)-2-hydroxy-3-(3-(methylsulfonyl)phenoxy)propylamino)-1-oxa-8-azaspiro[4.5]decan-8-ylsulfonyl)quinolin-4(1H)-one] | 0.107 µM
CCn1cc(S(=O)(=O)N2CCC3(CC2)C[C@@H](NC[C@H](O)COc2cccc(S(=O)(=O)C4CC4)c2)CO3)c(=O)c2ccccc21 [Compound 297, 3-((R)-3-((S)-3-(3-(cyclopropylsulfonyl)phenoxy)-2-hydroxypropylamino)-1-oxa-8-azaspiro[4.5]decan-8-ylsulfonyl)-1-ethylquinolin-4(1H)-one] | 0.0265 µM
CCn1cc(S(=O)(=O)N2CCC3(CC2)C[C@@H](NC[C@H](O)COc2cccc(S(=O)(=O)C(F)(F)CO)c2)CO3)c(=O)c2ccccc21 [Compound 298, 3-((R)-3-((S)-3-(3-(1,1-difluoro-2-hydroxyethylsulfonyl)phenoxy)-2-hydroxypropylamino)-1-oxa-8-azaspiro[4.5]decan-8-ylsulfonyl)-1-ethylquinolin-4(1H)-one] | 0.0825 µM
CCn1cc(S(=O)(=O)N2CCC3(CC2)C[C@@H](NC[C@H](O)COc2cccc(S(=O)(=O)C(C)F)c2)CO3)c(=O)c2ccccc21 (stereo partly drawn) [Compound 299, 1-ethyl-3-((3R)-3-((2S)-3-(3-(1-fluoroethylsulfonyl)phenoxy)-2-hydroxypropylamino)-1-oxa-8-azaspiro[4.5]decan-8-ylsulfonyl)quinolin-4(1H)-one] | 0.0443 µM
O=S(=O)(c1ccc2ccccc2c1)N1CCC2(CC1)C[C@@H](NC[C@H](O)COc1cccc(S(=O)(=O)C3(CO)CC3)c1)CO2 [Compound 300, (S)-1-(3-(1-(hydroxymethyl)cyclopropylsulfonyl)phenoxy)-3-((R)-8-(naphthalen-2-ylsulfonyl)-1-oxa-8-azaspiro[4.5]decan-3-ylamino)propan-2-ol] | 0.0204 µM
CCOc1c(S(=O)(=O)N2CCC3(CC2)C[C@@H](NC[C@H](O)COc2cccc(S(=O)(=O)C4(CO)CC4)c2)CO3)ccc2ccccc12 [Compound 301, (S)-1-((R)-8-(1-ethoxynaphthalen-2-ylsulfonyl)-1-oxa-8-azaspiro[4.5]decan-3-ylamino)-3-(3-(1-(hydroxymethyl)cyclopropylsulfonyl)phenoxy)propan-2-ol] | 0.357 µM
O=S(=O)(c1cnc2cccn2c1)N1CCC2(CC1)C[C@@H](NC[C@H](O)COc1cccc(S(=O)(=O)C3(CO)CC3)c1)CO2 [Compound 302, (S)-1-(3-(1-(hydroxymethyl)cyclopropylsulfonyl)phenoxy)-3-((R)-8-(pyrrolo[1,2-a]pyrimidin-3-ylsulfonyl)-1-oxa-8-azaspiro[4.5]decan-3-ylamino)propan-2-ol] | 0.696 µM
O=S(=O)(c1cccc(OC[C@@H](O)CN[C@H]2COC3(CCN(S(=O)(=O)c4cnc5c(c4)NCCO5)CC3)C2)c1)C1CC1 [Compound 303, (S)-1-(3-(cyclopropylsulfonyl)phenoxy)-3-((R)-8-(2,3-dihydro-1H-pyrido[2,3-b][1,4]oxazin-7-ylsulfonyl)-1-oxa-8-azaspiro[4.5]decan-3-ylamino)propan-2-ol] | 0.0171 µM
COCCN1CCOc2ncc(S(=O)(=O)N3CCC4(CC3)C[C@@H](NC[C@H](O)COc3cccc(S(=O)(=O)C5CC5)c3)CO4)cc21 [Compound 304, (S)-1-(3-(cyclopropylsulfonyl)phenoxy)-3-((R)-8-(1-(2-methoxyethyl)-2,3-dihydro-1H-pyrido[2,3-b][1,4]oxazin-7-ylsulfonyl)-1-oxa-8-azaspiro[4.5]decan-3-ylamino)propan-2-ol] | 0.069 µM
C[C@@H]1CN(C)c2cc(S(=O)(=O)N3CCC4(CC3)C[C@@H](NC[C@H](O)COc3cccc(S(=O)(=O)C5CC5)c3)CO4)cnc2O1 [Compound 305, (S)-1-(3-(cyclopropylsulfonyl)phenoxy)-3-((R)-8-((R)-1,3-dimethyl-2,3-dihydro-1H-pyrido[2,3-b][1,4]oxazin-7-ylsulfonyl)-1-oxa-8-azaspiro[4.5]decan-3-ylamino)propan-2-ol] | 0.0171 µM
CCn1cc(S(=O)(=O)N2CCC3(CC2)C[C@@H](NC[C@H](O)COc2cccc(S(=O)(=O)COC)c2)CO3)c(=O)c2ccccc21 [Compound 306, 1-ethyl-3-((R)-3-((S)-2-hydroxy-3-(3-(methoxymethylsulfonyl)phenoxy)propylamino)-1-oxa-8-azaspiro[4.5]decan-8-ylsulfonyl)quinolin-4(1H)-one] | 0.0629 µM
O=S(=O)(c1cccc(OC[C@@H](O)CN[C@H]2COC3(CCN(S(=O)(=O)c4c[nH]c5ncccc45)CC3)C2)c1)C1CC1 [Compound 307, (S)-1-((R)-8-(1H-pyrrolo[2,3-b]pyridin-3-ylsulfonyl)-1-oxa-8-azaspiro[4.5]decan-3-ylamino)-3-(3-(cyclopropylsulfonyl)phenoxy)propan-2-ol] | 0.0592 µM
O=S(=O)(c1cccc(OC[C@@H](O)CN[C@H]2COC3(CCN(S(=O)(=O)c4c[nH]c5ccccc45)CC3)C2)c1)C1CC1 [Compound 308, (S)-1-((R)-8-(1H-indol-3-ylsulfonyl)-1-oxa-8-azaspiro[4.5]decan-3-ylamino)-3-(3-(cyclopropylsulfonyl)phenoxy)propan-2-ol] | 0.0345 µM
CS(=O)(=O)c1cccc(OC[C@@H](O)CN[C@H]2COC3(CCN(S(=O)(=O)c4c[nH]c5ccccc45)CC3)C2)c1 [Compound 311, (S)-1-((R)-8-(1H-indol-3-ylsulfonyl)-1-oxa-8-azaspiro[4.5]decan-3-ylamino)-3-(3-(methylsulfonyl)phenoxy)propan-2-ol] | 0.0435 µM
COCS(=O)(=O)c1cccc(OC[C@@H](O)CN[C@H]2COC3(CCN(S(=O)(=O)c4c[nH]c5ccccc45)CC3)C2)c1 [Compound 312, (S)-1-((R)-8-(1H-indol-3-ylsulfonyl)-1-oxa-8-azaspiro[4.5]decan-3-ylamino)-3-(3-(methoxymethylsulfonyl)phenoxy)propan-2-ol] | 0.0315 µM
O=C1Cc2cc(S(=O)(=O)N3CCC4(CC3)C[C@@H](NC[C@H](O)COc3cccc(S(=O)(=O)C5CC5)c3)CO4)cnc2N1 [Compound 313, 5-((R)-3-((S)-3-(3-(cyclopropylsulfonyl)phenoxy)-2-hydroxypropylamino)-1-oxa-8-azaspiro[4.5]decan-8-ylsulfonyl)-1H-pyrrolo[2,3-b]pyridin-2(3H)-one] | 0.141 µM
CCn1cc(S(=O)(=O)N2CCC3(CC2)C[C@@H](NC[C@H](O)COc2cccc(S(=O)(=O)C4CC4)c2)CO3)c(=O)c2cc(F)ccc21 [Compound 314, 3-((R)-3-((S)-3-(3-(cyclopropylsulfonyl)phenoxy)-2-hydroxypropylamino)-1-oxa-8-azaspiro[4.5]decan-8-ylsulfonyl)-1-ethyl-6-fluoroquinolin-4(1H)-one] | 0.27 µM
CCn1cc(S(=O)(=O)N2CCC3(CC2)C[C@@H](NC[C@H](O)COc2cccc(S(=O)(=O)C4CC4)c2)CO3)c(=O)c2cccc(C)c21 [Compound 315, 3-((R)-3-((S)-3-(3-(cyclopropylsulfonyl)phenoxy)-2-hydroxypropylamino)-1-oxa-8-azaspiro[4.5]decan-8-ylsulfonyl)-1-ethyl-8-methylquinolin-4(1H)-one] | 0.0239 µM
